Like-named read-outs stand apart in the source and are kept apart here.
Assays:
Experiment in all cases: Kinase inhibition profile (HTRF / ADP Glo kinase assay)
Assay type in all cases: biochemical
ABL1 = ABL1 (Homo sapiens (Human), UniProt P00519)
Method: (§1) HTRF kinase assay: 2×ATP and substrate solution as well as 2× kinase and metal solution were prepared with assay buffer. 25 nL of compound was transferred to 384-well assay plate by Echo 655. After centrifugation, 2.5 μL of 2× kinase/metal ion solution was added to the 384-well assay plate followed by incubation at 25° C. for 10 min. 2.5 μL of 2× substrate and ATP solution was added to the wells followed by incubation at 25° C. for 60 min. 2× XL665 and antibody solution was prepared with assay buffer. 5 μL of kinase detection reagent was added to the wells followed by incubation at 25° C. for 60 min. Fluorescence signals at 620 nm (Cryptate) and 665 nm (XL665) were read with a microtiter plate reader. ADP Glo kinase assay: 2×ATP and substrate solution as well as 2× kinase and metal solution were prepared with assay buffer. 20 nL of compound was transferred to 384-well assay plate by Echo 655. 2 μL of 2× kinase/metal ion solution was added followed by incubation at 25° C. for 10 min in the 384-well assay plate. 2 μL of 2× substrate and ATP solution was added to the wells followed by incubation at 25° C. for 60 min. 4 μL of ADP Glo reagent was added to the wells followed by incubation at 25° C. for 40 min. 8 μL of kinase test reagent was added to the wells followed by incubation at 25° C. for 40 min. The luminescence signals were recorded on a microtiter plate reader. Data analysis: the reaction control (0.5% DMSO) reading was set to 0% inhibition, and the background (10 μM positive control) reading was set to 100% inhibition, then the percent inhibition for each test solution was calculated and the results are shown in Table 2 and FIG. 3.

AKT1 = AKT1 (Homo sapiens (Human), UniProt P31749)
Method: as §1

AMPKαl/β1/γ1 = AMPKαl/β1/γ1 (Homo sapiens (Human), UniProt Q13131)
Method: as §1

AXL = AXL (Homo sapiens (Human), UniProt P30530)
Method: as §1

BRAF = BRAF (Homo sapiens (Human), UniProt P15056)
Chain of BRAF (P15056 whole entry, species assumed): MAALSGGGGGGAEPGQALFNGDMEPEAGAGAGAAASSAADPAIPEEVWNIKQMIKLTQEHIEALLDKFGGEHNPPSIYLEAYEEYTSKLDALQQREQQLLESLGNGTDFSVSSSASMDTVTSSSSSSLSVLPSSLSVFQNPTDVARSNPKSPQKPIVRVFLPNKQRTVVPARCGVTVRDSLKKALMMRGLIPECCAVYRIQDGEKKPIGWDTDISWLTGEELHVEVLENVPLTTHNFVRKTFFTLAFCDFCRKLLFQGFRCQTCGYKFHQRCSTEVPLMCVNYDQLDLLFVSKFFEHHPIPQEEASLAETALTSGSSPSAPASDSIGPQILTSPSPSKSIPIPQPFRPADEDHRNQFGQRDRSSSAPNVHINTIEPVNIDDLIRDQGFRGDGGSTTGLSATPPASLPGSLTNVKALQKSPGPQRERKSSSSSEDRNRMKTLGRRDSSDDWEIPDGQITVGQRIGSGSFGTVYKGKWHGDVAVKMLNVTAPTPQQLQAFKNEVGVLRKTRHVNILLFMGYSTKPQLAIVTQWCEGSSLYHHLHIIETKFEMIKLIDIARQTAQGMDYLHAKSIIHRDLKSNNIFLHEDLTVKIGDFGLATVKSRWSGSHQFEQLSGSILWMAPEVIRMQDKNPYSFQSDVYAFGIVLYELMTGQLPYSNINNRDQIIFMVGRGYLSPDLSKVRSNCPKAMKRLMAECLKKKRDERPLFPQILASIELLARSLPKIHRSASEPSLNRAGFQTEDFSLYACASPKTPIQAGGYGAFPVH
Method: as §1

BRSK2 = BRSK2 (Homo sapiens (Human), UniProt Q8IWQ3)
Method: as §1

CDK2/CycE1 = CDK2/CycE1 (Homo sapiens (Human), UniProt P24941)
Method: as §1

DAPK1 = DAPK1 (Homo sapiens (Human), UniProt P53355)
Chain of DAPK1 (P53355 whole entry, species assumed): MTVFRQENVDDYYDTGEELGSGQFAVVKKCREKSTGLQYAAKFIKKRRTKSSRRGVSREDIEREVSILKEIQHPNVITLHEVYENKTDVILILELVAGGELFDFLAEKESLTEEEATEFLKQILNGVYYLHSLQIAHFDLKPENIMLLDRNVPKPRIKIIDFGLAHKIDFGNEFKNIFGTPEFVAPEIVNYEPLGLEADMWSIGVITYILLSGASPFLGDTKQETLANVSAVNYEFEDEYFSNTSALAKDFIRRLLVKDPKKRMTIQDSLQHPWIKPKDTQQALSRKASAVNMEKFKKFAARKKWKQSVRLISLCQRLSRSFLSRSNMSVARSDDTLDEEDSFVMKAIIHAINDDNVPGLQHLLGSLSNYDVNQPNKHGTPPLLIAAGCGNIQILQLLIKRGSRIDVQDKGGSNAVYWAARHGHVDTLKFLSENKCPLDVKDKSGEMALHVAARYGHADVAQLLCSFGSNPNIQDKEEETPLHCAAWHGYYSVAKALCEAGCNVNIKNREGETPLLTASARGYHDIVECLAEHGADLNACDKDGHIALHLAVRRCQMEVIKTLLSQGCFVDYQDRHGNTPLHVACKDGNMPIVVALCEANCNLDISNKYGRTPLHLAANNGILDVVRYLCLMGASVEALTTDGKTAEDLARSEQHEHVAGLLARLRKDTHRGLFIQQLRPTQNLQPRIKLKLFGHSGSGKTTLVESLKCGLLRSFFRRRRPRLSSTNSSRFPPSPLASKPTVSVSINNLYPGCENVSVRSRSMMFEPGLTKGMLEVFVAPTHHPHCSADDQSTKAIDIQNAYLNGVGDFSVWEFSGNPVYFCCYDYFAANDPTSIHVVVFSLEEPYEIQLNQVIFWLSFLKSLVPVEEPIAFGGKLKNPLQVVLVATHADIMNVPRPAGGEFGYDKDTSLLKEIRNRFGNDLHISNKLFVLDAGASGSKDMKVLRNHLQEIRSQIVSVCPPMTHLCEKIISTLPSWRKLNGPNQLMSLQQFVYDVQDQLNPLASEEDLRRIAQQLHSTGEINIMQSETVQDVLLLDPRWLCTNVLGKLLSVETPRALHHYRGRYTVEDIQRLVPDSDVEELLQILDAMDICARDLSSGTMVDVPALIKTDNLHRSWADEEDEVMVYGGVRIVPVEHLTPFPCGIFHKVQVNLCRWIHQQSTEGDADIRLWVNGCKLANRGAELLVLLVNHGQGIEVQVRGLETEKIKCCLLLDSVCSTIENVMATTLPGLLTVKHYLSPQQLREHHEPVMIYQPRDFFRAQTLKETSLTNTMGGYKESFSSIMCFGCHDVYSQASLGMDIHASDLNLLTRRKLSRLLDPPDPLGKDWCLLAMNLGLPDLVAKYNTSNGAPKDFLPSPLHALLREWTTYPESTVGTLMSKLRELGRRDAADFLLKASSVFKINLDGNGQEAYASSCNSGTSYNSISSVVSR
Method: as §1

Erk2 = Erk2 (Homo sapiens (Human), UniProt P28482)
Chain of Erk2 (P28482 whole entry, species assumed): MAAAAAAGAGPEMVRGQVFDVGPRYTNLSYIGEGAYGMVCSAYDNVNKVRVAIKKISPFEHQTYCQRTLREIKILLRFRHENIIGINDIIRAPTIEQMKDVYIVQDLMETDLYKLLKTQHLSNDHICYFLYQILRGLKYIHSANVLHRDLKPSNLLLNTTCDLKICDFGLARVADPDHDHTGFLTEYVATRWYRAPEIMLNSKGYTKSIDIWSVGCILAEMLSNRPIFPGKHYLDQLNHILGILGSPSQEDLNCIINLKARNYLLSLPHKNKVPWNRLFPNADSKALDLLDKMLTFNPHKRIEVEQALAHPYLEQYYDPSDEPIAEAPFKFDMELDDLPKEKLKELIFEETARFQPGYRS
Method: as §1

HPK1 = HPK1 (Homo sapiens (Human), UniProt Q92918)
Method: as §1

IGF1R = IGF1R (Homo sapiens (Human), UniProt P08069)
Method: as §1

JNK1 = JNK1 (Homo sapiens (Human), UniProt P45983)
Chain of JNK1 (P45983 whole entry, species assumed): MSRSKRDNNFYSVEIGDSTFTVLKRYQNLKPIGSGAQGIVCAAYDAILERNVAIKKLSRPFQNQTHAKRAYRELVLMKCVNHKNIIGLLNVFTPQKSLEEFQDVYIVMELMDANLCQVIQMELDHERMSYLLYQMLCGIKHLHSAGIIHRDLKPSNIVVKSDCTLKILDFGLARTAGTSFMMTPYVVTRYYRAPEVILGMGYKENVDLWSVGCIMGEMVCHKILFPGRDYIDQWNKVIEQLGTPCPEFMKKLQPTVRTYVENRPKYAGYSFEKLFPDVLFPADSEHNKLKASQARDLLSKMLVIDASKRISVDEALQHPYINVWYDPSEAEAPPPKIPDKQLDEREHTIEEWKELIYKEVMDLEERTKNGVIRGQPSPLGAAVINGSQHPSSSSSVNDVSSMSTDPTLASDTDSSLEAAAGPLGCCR
Method: as §1

KDR = KDR (Homo sapiens (Human), UniProt P35968)
Method: as §1

MAPKAPK2 = MAPKAPK2 (Homo sapiens (Human), UniProt P49137)
Method: as §1

MET = MET (Homo sapiens (Human), UniProt P08581)
Method: as §1

PKD2 = PKD2 (Homo sapiens (Human), UniProt Q9BZL6)
Chain of PKD2 (Q9BZL6 whole entry): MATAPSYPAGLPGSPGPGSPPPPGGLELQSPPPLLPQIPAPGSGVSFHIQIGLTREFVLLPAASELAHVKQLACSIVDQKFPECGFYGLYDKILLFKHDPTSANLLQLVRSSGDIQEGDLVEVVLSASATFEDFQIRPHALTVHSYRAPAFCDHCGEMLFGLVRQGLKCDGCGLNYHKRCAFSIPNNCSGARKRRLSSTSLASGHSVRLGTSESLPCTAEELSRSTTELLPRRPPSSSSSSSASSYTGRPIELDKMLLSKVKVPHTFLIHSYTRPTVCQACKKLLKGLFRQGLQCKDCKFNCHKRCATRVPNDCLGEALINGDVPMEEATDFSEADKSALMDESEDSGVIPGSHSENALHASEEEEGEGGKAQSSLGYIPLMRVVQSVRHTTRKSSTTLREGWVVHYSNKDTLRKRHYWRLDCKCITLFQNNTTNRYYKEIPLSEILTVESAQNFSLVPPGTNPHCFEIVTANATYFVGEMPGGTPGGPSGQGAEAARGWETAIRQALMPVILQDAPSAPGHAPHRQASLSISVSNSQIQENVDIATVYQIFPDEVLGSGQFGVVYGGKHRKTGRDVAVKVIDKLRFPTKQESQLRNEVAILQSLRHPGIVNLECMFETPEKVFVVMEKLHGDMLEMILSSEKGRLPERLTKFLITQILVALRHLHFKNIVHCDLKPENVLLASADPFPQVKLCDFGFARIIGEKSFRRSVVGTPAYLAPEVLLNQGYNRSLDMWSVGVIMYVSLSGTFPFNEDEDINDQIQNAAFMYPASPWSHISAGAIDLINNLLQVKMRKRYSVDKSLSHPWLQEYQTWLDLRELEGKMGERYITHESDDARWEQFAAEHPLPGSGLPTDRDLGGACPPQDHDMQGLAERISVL
Method: as §1

SGK = SGK (Homo sapiens (Human), UniProt O00141)
Chain of SGK (O00141 whole entry, species assumed): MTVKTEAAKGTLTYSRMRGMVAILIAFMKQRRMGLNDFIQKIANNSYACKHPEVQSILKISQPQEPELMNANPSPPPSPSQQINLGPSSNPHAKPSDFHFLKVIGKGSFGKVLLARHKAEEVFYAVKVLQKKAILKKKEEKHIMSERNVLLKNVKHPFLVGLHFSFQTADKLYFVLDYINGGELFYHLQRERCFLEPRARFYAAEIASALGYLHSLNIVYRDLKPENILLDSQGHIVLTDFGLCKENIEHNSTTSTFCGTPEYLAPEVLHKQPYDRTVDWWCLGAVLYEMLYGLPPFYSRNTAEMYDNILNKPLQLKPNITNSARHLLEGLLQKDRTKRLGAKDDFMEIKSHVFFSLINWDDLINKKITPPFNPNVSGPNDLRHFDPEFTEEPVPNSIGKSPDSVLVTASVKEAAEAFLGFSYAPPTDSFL
Method: as §1

SRC = SRC (Homo sapiens (Human), UniProt P12931)
Method: as §1

TRKB = TRKB (Homo sapiens (Human), UniProt Q16620)
Method: as §1

TSSK1 = TSSK1 (Homo sapiens (Human), UniProt Q9BXA7)
Method: as §1

p38α = p38α (Homo sapiens (Human), UniProt Q16539)
Method: as §1

p70S6K = p70S6K (Homo sapiens (Human), UniProt P23443)
Chain of p70S6K (P23443 whole entry): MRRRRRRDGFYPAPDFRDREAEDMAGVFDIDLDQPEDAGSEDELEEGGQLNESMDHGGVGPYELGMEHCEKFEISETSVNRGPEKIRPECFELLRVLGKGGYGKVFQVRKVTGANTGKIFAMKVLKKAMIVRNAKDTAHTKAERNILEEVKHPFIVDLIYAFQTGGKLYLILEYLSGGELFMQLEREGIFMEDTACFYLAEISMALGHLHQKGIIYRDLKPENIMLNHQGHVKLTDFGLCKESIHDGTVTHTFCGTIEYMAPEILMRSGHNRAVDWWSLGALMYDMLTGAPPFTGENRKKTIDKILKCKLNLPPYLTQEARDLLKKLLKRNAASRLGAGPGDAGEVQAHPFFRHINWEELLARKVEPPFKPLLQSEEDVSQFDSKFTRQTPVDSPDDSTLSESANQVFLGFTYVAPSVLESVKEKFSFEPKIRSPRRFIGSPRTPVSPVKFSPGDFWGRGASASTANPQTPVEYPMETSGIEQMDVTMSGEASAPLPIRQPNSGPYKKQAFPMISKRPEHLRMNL
Method: as §1

[1] = 1 uM Compound C1, read-out: % Inhibition (First measurement)
[2] = 1 uM Compound C1, read-out: % Inhibition (Second measurement)
[3] = 1 uM Compound C1, read-out: Average inhibition (%)

Cc1ccc(C(=O)Nc2ccccn2)cc1C#Cc1cnc2cc(C3=CCCCC3)cnn12 [Compound C1, 3-{2-[7-(cyclohex-1-en-1-yl)imidazo[1,2-b]pyridazin-3-yl]ethynyl}-4-methyl-N-(pyridin-2-yl)benzamide]
inhibition at 1 µM (ABL1; [1]): 43.2%
inhibition at 1 µM (ABL1; [2]): 50.7%
inhibition at 1 µM (ABL1; [3]): 47%
inhibition at 1 µM (AKT1; [1]): 7.17%
inhibition at 1 µM (AKT1; [2]): 4.56%
inhibition at 1 µM (AKT1; [3]): 5.87%
inhibition at 1 µM (AMPKαl/β1/γ1; [1]): 2.13%
inhibition at 1 µM (AMPKαl/β1/γ1; [2]): -1.96%
inhibition at 1 µM (AMPKαl/β1/γ1; [3]): 0.09%
inhibition at 1 µM (AXL; [1]): 15.1%
inhibition at 1 µM (AXL; [2]): 13.3%
inhibition at 1 µM (AXL; [3]): 14.2%
inhibition at 1 µM (BRAF; [1]): -6.73%
inhibition at 1 µM (BRAF; [2]): -23.9%
inhibition at 1 µM (BRAF; [3]): -15.3%
inhibition at 1 µM (BRSK2; [1]): 0.46%
inhibition at 1 µM (BRSK2; [2]): -0.94%
inhibition at 1 µM (BRSK2; [3]): -0.24%
inhibition at 1 µM (CDK2/CycE1; [1]): 0.53%
inhibition at 1 µM (CDK2/CycE1; [2]): 12.6%
inhibition at 1 µM (CDK2/CycE1; [3]): 6.56%
inhibition at 1 µM (DAPK1; [1]): -14.5%
inhibition at 1 µM (DAPK1; [2]): -5.25%
inhibition at 1 µM (DAPK1; [3]): -9.87%
inhibition at 1 µM (Erk2; [1]): 20.2%
inhibition at 1 µM (Erk2; [2]): 19.3%
inhibition at 1 µM (Erk2; [3]): 19.8%
inhibition at 1 µM (HPK1; [1]): 23.9%
inhibition at 1 µM (HPK1; [2]): 24.7%
inhibition at 1 µM (HPK1; [3]): 24.3%
inhibition at 1 µM (IGF1R; [1]): -0.05%
inhibition at 1 µM (IGF1R; [2]): -2.29%
inhibition at 1 µM (IGF1R; [3]): -1.17%
inhibition at 1 µM (JNK1; [1]): 4.56%
inhibition at 1 µM (JNK1; [2]): 5.69%
inhibition at 1 µM (JNK1; [3]): 5.13%
inhibition at 1 µM (KDR; [1]): 2.42%
inhibition at 1 µM (KDR; [2]): 1.61%
inhibition at 1 µM (KDR; [3]): 2.01%
inhibition at 1 µM (MAPKAPK2; [1]): 15.3%
inhibition at 1 µM (MAPKAPK2; [2]): -3.28%
inhibition at 1 µM (MAPKAPK2; [3]): 6.02%
inhibition at 1 µM (MET; [1]): -11.9%
inhibition at 1 µM (MET; [2]): -15.8%
inhibition at 1 µM (MET; [3]): -13.9%
inhibition at 1 µM (PKD2; [1]): -7.86%
inhibition at 1 µM (PKD2; [2]): -6.58%
inhibition at 1 µM (PKD2; [3]): -7.22%
inhibition at 1 µM (SGK; [1]): -8.79%
inhibition at 1 µM (SGK; [2]): -6.61%
inhibition at 1 µM (SGK; [3]): -7.7%
inhibition at 1 µM (SRC; [1]): -0.76%
inhibition at 1 µM (SRC; [2]): -1.13%
inhibition at 1 µM (SRC; [3]): -0.94%
inhibition at 1 µM (TRKB; [1]): 20.8%
inhibition at 1 µM (TRKB; [2]): 40.4%
inhibition at 1 µM (TRKB; [3]): 30.6%
inhibition at 1 µM (TSSK1; [1]): -15.1%
inhibition at 1 µM (TSSK1; [2]): -3.43%
inhibition at 1 µM (TSSK1; [3]): -9.28%
inhibition at 1 µM (p38α; [1]): 3.39%
inhibition at 1 µM (p38α; [2]): -3.27%
inhibition at 1 µM (p38α; [3]): 0.06%
inhibition at 1 µM (p70S6K; [1]): 0.46%
inhibition at 1 µM (p70S6K; [2]): -0.19%
inhibition at 1 µM (p70S6K; [3]): 0.14%
